{
  "source": "the NIST ThermoML archive (doi:10.1016/j.jct.2014.02.008)",
  "test": "cn = amount concentration of the nth substance listed, in mol/dm3",
  "settings": "298.15 K, 101 kPa, Liquid, Taylor dispersion method",
  "data": [
    {"smiles": "NCCCC[C@H](N)C(=O)O", "note": "[L-lysine] + O", "values": [
      {"measurement": "binary diffusion coefficient", "setting": "c1 = 0.001", "value": "6.66e-10", "unit": "m2/s"},
      {"measurement": "binary diffusion coefficient", "setting": "c1 = 0.005", "value": "6.62e-10", "unit": "m2/s"},
      {"measurement": "binary diffusion coefficient", "setting": "c1 = 0.01", "value": "6.61e-10", "unit": "m2/s"},
      {"measurement": "binary diffusion coefficient", "setting": "c1 = 0.02", "value": "6.59e-10", "unit": "m2/s"},
      {"measurement": "binary diffusion coefficient", "setting": "c1 = 0.03", "value": "6.52e-10", "unit": "m2/s"},
      {"measurement": "binary diffusion coefficient", "setting": "c1 = 0.05", "value": "6.46e-10", "unit": "m2/s"},
      {"measurement": "binary diffusion coefficient", "setting": "c1 = 0.1", "value": "6.26e-10", "unit": "m2/s"}
    ]}
  ]
}
